The values below come from PMC10098121, “Amphipathic barbiturates as marine product mimics with cytolytic and immunogenic effects on head and neck squamous cell carcinoma cell lines” (Frontiers in Pharmacology, 2023).

What all share (format): cell-based, human
Experiment [1] deals with cell surface calreticulin on UT-SCC-24A cells. Nature of the experiment: Flow cytometric detection of cell surface calreticulin. The settings on record: 24 h, cisplatin 50 µM, MPMs 5-20 µM, vs untreated. The procedure:
This procedure was based on a published method ([Liu et al., 2020]), but was performed with some modifications. Briefly, HSC-3 and UT-SCC-24A cells were seeded, 300,000 cells/well, in 6-well plates and left to adhere overnight. The media was then removed and replaced by 2 ml complete DMEM/F-12 containing 5, 7.5, 10 or 20 µM of MPM-2:0, MPM-6:0, MPM-3:2 or MPM-4:2, or 50 µM cisplatin. Some cells were left untreated. The cells were then incubated for 24 h. Next, the cell supernatants were collected before the cells were trypsinized and spun down with the supernatants. The cells were then washed in PBS before being incubated with the viability dye Zombie Violet (#423114, BioLegend, San Diego, CA, United States) diluted 1:500 in PBS for 20 min. Next, the cells were incubated with an anti-calreticulin antibody (#ab2907, Abcam) diluted 1:100 in FACS buffer (2%BSA in PBS) for 30 min. The cells were then fixed in 4% formaldehyde for 15 min and washed twice in FACS buffer before being incubated with the secondary antibody (#A11034, Thermo Fisher Scientific) diluted 1:250 in FACS buffer for 30 min. The cells were washed in FACS buffer and analyzed on a LSR Fortessa (BD Biosciences) within 1 week. Analyses were performed in FlowJo™ v.10 (https://www.flowjo.com/).
Background: Flow cytometry measures light scatter and fluorescence of single cells or particles in a stream.

The subject of experiment [2] is HSC-3 cells. Nature of the experiment: MTS viability assay with bafilomycin A1 and z-VAD-FMK. The settings on record: HSC-3, 24 h; cisplatin 50 µM, MPM-2:0/MPM-6:0 5 µM, MPM-3:2/MPM-4:2 10 µM. The procedure: HSC-3 and UT-SCC-24A cells were seeded, 10,000 cells/well, in flat bottom 96-well plates and left to adhere overnight. The supernatants were then removed and replaced by 50 µl of complete DMEM/F-12 ± 100 nM BafA1 (#196000, Sigma-Aldrich, St. Louis, MO, United States) or 50 µM z-VAD-FMK (#219007, Sigma-Aldrich). The plate was then incubated for 1 hour before another 50 µl of complete DMEM/F-12 ± 100 nM BafA1 or 50 µM z-VAD-FMK as well as the MPMs or cisplatin was added. The final concentration of cisplatin was 50 µM and for the MPMs it was 5 or 10 µM for MPM-2:0 and MPM-6:0, and 10 or 20 µM for MPM-3:2 and MPM-4:2, for HSC-3 and UT-SCC-24A cells, respectively. 100 μl of media ± 1% Triton X-100 served as […]. The cells were incubated for 24 h before 20 µl of MTS reagent (CellTiter 96® Aqueous One Solution, Promega, Madison, WI, United States) was added to each well. The plate was then incubated for one more hour before absorbance was measured at 490 nm on a VersaMaxTM Microplate reader (Molecular Devices, San Jose, CA, United States). Viability was calculated using the following formula: %=Abs treated sample−Abs positive control/Abs negative control−Abs positive control x 100
At least three independent experiments were performed, with triplicate wells in each experiment.

A further experiment relates to UT-SCC-24A cells. Nature of the experiment: Western blot for extracellular HMGB1. The settings on record: 24 h, supernatant. The procedure: Detection of HMGB1 in the supernatant of MPM treated HSC-3 and UT-SCC-24A cells was performed as previously described ([von Hofsten et al., 2022]). Briefly, HSC-3 and UT-SCC-24A cells were seeded, 100,000 cells/well in 12-well plates and left to adhere overnight. The following day, the media was removed and replaced with media containing either 50 µM cisplatin, 5 or 10 µM MPM-2:0 or MPM-6:0, or 10 or 20 µM MPM-3:2 or MPM-4:2. The cells were incubated for 24 h before supernatants were collected and centrifuged to remove debris. Supernatant samples were mixed with DTT (final concentration 50 mM) and sample buffer before being boiled for 5 min and loaded on a NuPAGE® 10% Bis–Tris Gel (Thermo Fisher Scientific) before being electro-transferred to a polyvindiline dilfluoride (PVDF) immobilon-P membrane (Merck, Rahway, NJ, United States). The membrane was blocked for 1 h with 5% non-fat dry milk in TBST and then incubated overnight at 4°C with the primary antibody targeting HMGB1 (#ab18256, Abcam) diluted 1:1,000 in TBST 5% non-fat dry milk. Next, the membrane was washed three times in TBST and incubated with an HRP-conjugated goat anti-rabbit secondary antibody (#4050-05, Southern Biotech, Birmingham, AL, United States) diluted 1:2000 in TBST 5% non-fat dry milk at room temperature for 1 h. […]
(In western blotting, separated proteins are transferred to a membrane and probed.)

Experiment [3] deals with HSC-3 cells. Nature of the experiment: Scratch wound migration assay. The settings on record: for wound closure in migration assay (in words): HSC-3, 10 µM, 24 h; for wound closing at the lower concentrations (in words): HSC-3, 0.1 or 1 µM, text does not separate migration and invasion. The procedure: Two Incucyte image lock 96-well plates (#4379, Sartorius) were coated with 50 µl myogel (0.5 mg/ml) per well. The next day, the media remaining in the wells was removed before HSC-3 cells were seeded at a density of 25,000 cells/well in 100 µl. The cells were left to adhere, and the following day, a scratch was made in the middle of each well using the Incucyte 96-pin WoundMaker tool (Sartorius). The wells were then washed once with media. For the migration assay, the media in each well was then replaced with 100 µl of media containing 0.1, 1 or 10 µM of MPM-2:0 or MPM-4:2. For the invasion assay, the media was replaced by 50 µl of a gel consisting of serum-free media, myogel (2.4 mg/ml), type I rat tail collagen (0.8 mg/ml, Corning, NY, USA) and 0.1, 1 or 10 µM of MPM-2:0 or MPM-4:2. The plate was incubated at 37°C for 1 h to let the gel solidify. Next, 100 µl of media, also containing 0.1, 1 or 10 µM of MPM-2:0 or MPM-4:2 was added on top of the gel. Both the migration and invasion plates were placed in the Incucyte S3 (Sartorius) and imaged at ×10 magnification every 2 hours for 24 h in total. The Incucyte software was used to analyze the relative wound density.

Turning to `NCCCCCCN1C(=O)N(CCCCCCN)C(=O)C(CCCc2ccccc2)(CCCc2ccccc2)C1=O` [MPM-6:0], the “cell surface expression of calreticulin (in words)” value in experiment [1] is on record as “statistically significant levels of cell surface calreticulin”. Further, the “viability in the presence of BafA1 (100 nM) or z-VAD-FMK (50 µM) (in words)” value in the experiment on HSC-3 cells [2] was “z-VAD-FMK increase viability more than BafA1”. The “release of HMGB1 (in words)” value in the experiment with UT-SCC-24A cells is “statistically significant”.
With `N.N.[Cl][Pt][Cl]` [Cisplatin, cisplatin, reference compound], the “cell surface expression of calreticulin (in words)” value in experiment [1] is “did not induce any cell surface expression of calreticulin”. Also, the “viability in the presence of BafA1 (100 nM) or z-VAD-FMK (50 µM) (in words)” value in the experiment on HSC-3 cells [2] is “z-VAD-FMK seemed to have some protective effects against cisplatin for both cell lines, while BafA1 had the opposite effect”.
Consider `NCCN1C(=O)N(CCN)C(=O)C(CCCc2ccccc2)(CCCc2ccccc2)C1=O` [MPM-2:0], for which the “release of HMGB1 (in words)” value in the experiment on UT-SCC-24A cells is listed as “statistically significant”. Further, in the experiment with HSC-3 cells [3], the “wound closure in migration assay (in words)” value is “induced cell death so quickly that it was not possible to study the effect on migration or invasion” and the “wound closing at the lower concentrations (in words)” value is “trend towards faster wound closing”.
As to `CN(C)CCCCN1C(=O)N(CCCCN(C)C)C(=O)C(CCCc2ccccc2)(CCCc2ccccc2)C1=O` [MPM-4:2], in the experiment on HSC-3 cells [3], the “wound closure in migration assay (in words)” value is recorded as “required more time to close the wound” and the “wound closing at the lower concentrations (in words)” value is given as “trend towards faster wound closing”.
